The values below are quoted from earlier work in patent US20110236307A1, “IN VIVO IMAGING METHOD” (priority 2008, published 2011).

The data set concerns protein deposition in PD. Particulars: PD patients, brain.

The structures appear in SMILES notation.

`[11CH3]Nc1ccc(-c2nc3ccc(O)cc3s2)cc1` [[^11C]PIB, ^11C-6-OH-benzothiazole]: the “in vivo binding pattern” value was “decreased from the brainstem to the cortical areas”.
